How the values were obtained:
[1] = Stability of crystalline hydrate forms of compound of formula I; format: physicochemical
Source text: As pointed out above, a further aspect of the present invention relates to the hydrate B of the compound of formula I. Form B is a non-stoichiometric hydrate of the compound of formula I. The typical water content is in the range from 7.5 to 9 wt % and in particular about 8.5 wt %, i.e. 8.5±0.2 wt %. The water content can be determined by thermo-gravimetric analysis (TGA).

Tenebrio molitor L = details: cited from earlier work
[2] = tested on: Plutella xylostella L larvae; details: cited from earlier work
[3] = tested on: larvae of Helicoverpa zea; details: cited from earlier work

## C[C@]1(COC(=O)C2CC2)[C@@H]2C[C@H](O)[C@@]3(C)Oc4cc(-c5cccnc5)oc(=O)c4[C@H](O)[C@@H]3[C@@]2(C)CC[C@@H]1OC(=O)C1CC1 [Form C]
[1]; ambient conditions
  stability of the hydrate form: stable at ambient conditions over weeks and month

## C[C@]1(COC(=O)C2CC2)[C@@H]2C[C@H](O)[C@@]3(C)Oc4cc(-c5cccnc5)oc(=O)c4[C@H](O)[C@@H]3[C@@]2(C)CC[C@@H]1OC(=O)C1CC1 [Form B]
[1]; dried at elevated temperatures, e.g. >50 °C
  conversion of the hydrate form: slowly converts into amorphous material
[1]; room temperature, in contact with aqueous solvent or water or at high degrees of humidity, e.g. 90%
  stability of the hydrate form: stable
[1]; when the mother liquor is removed or humidity is reduced
  conversion of the hydrate form: slowly converts into form C

## CC(=O)OC[C@@]1(C)[C@@H]2C[C@H](OC(C)=O)[C@@]3(C)Oc4cc(-c5cccnc5)oc(=O)c4[C@H](O)[C@@H]3[C@@]2(C)CC[C@@H]1OC(C)=O [Pyripyropene A]
Tenebrio molitor L
  insecticidal activity: insecticidal activity
[2]
  insecticidal activity: insecticidal activity
[3]
  insecticidal activity: insecticidal activity

Source: patent publication US9888689B2, “Compositions containing a pyripyropene insecticide and an adjuvant” (BASF SE, priority 2010, dated 2018)
